{"source": "ChEMBL document CHEMBL4382193", "about": "“Discovery of Potent Irreversible Pan-Fibroblast Growth Factor Receptor (FGFR) Inhibitors” (J Med Chem, 2018)", "key": {"[1]": {"target": "Fibroblast growth factor receptor 1 (Homo sapiens, UniProt P11362)", "sequence (P11362 whole entry)": "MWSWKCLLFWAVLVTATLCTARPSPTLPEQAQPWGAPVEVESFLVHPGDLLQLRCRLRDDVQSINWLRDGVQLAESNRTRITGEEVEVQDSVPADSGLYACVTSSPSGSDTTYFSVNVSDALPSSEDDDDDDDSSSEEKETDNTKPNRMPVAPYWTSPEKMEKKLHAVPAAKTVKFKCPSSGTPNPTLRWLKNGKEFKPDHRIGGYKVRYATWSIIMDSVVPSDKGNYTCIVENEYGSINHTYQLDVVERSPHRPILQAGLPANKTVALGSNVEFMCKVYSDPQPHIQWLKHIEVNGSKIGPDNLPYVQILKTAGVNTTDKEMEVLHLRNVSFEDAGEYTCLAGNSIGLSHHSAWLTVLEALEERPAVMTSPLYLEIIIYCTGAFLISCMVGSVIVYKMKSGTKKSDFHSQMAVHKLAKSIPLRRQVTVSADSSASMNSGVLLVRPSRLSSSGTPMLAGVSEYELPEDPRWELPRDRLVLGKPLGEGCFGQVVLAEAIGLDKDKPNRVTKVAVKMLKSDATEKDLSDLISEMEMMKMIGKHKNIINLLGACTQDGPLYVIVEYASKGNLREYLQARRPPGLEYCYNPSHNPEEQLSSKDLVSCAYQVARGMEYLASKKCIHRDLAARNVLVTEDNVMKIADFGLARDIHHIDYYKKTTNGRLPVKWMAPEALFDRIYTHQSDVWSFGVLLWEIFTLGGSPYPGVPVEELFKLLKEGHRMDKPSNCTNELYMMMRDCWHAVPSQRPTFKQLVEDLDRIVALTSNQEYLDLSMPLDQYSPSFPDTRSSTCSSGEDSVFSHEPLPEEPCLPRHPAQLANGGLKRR", "description": "Inhibition of recombinant FGFR1 (unknown origin) using poly (Glu,Tyr) 4:1 as substrate after 60 mins by ELISA"}, "NCI-H1581": {"tested_on": "NCI-H1581", "experiment": "cells", "conditions": "Homo sapiens, NCI-H1581, 72 h", "description": "Antiproliferative activity against FGFR1 amplified human NCI-H1581 cells after 72 hrs by CCK8 or MTT assay"}, "[2]": {"target": "Fibroblast growth factor receptor 4 (Homo sapiens, UniProt P22455)", "sequence (P22455 whole entry)": "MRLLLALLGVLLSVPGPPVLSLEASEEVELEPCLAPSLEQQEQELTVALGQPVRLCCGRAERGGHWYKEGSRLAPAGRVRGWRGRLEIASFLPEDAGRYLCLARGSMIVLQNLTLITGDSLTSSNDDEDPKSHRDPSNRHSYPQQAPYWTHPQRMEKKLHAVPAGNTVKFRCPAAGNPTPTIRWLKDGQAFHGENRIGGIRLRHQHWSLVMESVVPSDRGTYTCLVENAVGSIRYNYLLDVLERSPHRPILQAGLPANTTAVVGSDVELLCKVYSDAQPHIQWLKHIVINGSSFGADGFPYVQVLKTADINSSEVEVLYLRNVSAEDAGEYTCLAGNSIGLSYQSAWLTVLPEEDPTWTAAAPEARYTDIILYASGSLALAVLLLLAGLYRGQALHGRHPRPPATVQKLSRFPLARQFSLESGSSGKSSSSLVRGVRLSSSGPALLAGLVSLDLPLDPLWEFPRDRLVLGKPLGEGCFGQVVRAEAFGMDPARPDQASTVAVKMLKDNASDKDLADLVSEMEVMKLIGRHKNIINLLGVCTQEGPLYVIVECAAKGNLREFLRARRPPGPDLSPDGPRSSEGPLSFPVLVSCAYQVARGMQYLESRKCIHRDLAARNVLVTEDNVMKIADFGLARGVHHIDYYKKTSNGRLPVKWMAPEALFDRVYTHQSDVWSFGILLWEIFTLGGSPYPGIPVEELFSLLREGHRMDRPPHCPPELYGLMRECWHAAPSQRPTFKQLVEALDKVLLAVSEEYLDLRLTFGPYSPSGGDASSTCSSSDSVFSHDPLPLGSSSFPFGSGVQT", "experiment": "Inhibition of recombinant FGFR4 (unknown origin) using poly (Glu,Tyr) 4:1 as substrate after 60 mins by ELISA"}, "[3]": {"experiment": "AUC in Sprague-Dawley rat at 10 mg/kg, po administered via gavage by HPLC-MS/MS analysis", "type": "ADME, organism-based", "conditions": "in vivo"}, "[4]": {"experiment": "Terminal half life in Sprague-Dawley rat at 10 mg/kg, po administered via gavage by HPLC-MS/MS analysis", "type": "ADME, organism-based", "conditions": "in vivo, read-out: beta t1/2 (converted)"}, "[5]": {"experiment": "Cmax in Sprague-Dawley rat at 10 mg/kg, po administered via gavage by HPLC-MS/MS analysis", "type": "ADME, organism-based", "design": "dose 10 mg/kg, route oral", "conditions": "in vivo"}, "[6]": {"experiment": "Tmax in Sprague-Dawley rat at 10 mg/kg, po administered via gavage by HPLC-MS/MS analysis", "type": "ADME, organism-based", "conditions": "in vivo"}, "Huh-7": {"tested_on": "Huh-7", "experiment": "cells", "conditions": "Homo sapiens, Huh-7, 72 h", "description": "Antiproliferative activity against FGF19/FGFR4 expressing human HuH7 cells after 72 hrs by CCK8 or MTT assay"}, "BaF3 [7]": {"tested_on": "BaF3", "experiment": "cells", "conditions": "Mus musculus, BaF3, 72 h", "description": "Antiproliferative activity against mouse BAF3 cells expressing TEL-fused KDR kinase after 72 hrs by CCK8 or MTT assay"}, "RT-112": {"tested_on": "RT-112", "experiment": "cells", "conditions": "Homo sapiens, RT-112, 72 h", "description": "Antiproliferative activity against FGFR3 amplified human RT112 cells after 72 hrs by CCK8 or MTT assay"}, "BaF3 [8]": {"tested_on": "BaF3", "experiment": "cells", "conditions": "Mus musculus, BaF3, 72 h", "remark": "listed apart in the source", "description": "Antiproliferative activity against mouse BAF3 cells expressing TEL-fused FGFR4 kinase after 72 hrs by CCK8 or MTT assay"}, "OPM-2": {"tested_on": "OPM-2", "experiment": "cells", "conditions": "Homo sapiens, OPM-2, 72 h", "description": "Antiproliferative activity against FGFR3 amplified human OPM2 cells after 72 hrs by CCK8 or MTT assay"}}, "data": [{"compound": "C=CS(=O)(=O)N1CC(n2cc(-c3cc4cc(C)cc(OC)c4s3)c3c(N)ncnc32)C1", "values": [{"measurement": "IC50", "setting": "[1]", "result": "< 0.3", "unit": "nM"}, {"measurement": "IC50", "setting": "NCI-H1581", "result": "> 1000", "unit": "nM"}]}, {"compound": "C=CC(=O)N1CCC(n2cc(-c3cc4cc(C)cc(OC)c4s3)c3c(N)ncnc32)CC1", "values": [{"measurement": "IC50", "setting": "NCI-H1581", "result": "< 0.3", "unit": "nM"}]}, {"compound": "COc1cc(C)cc2cc(-c3cn(C4CCN(C(=O)/C=C/CN(C)C)C4)c4ncnc(N)c34)sc12", "note": "(centres undefined)", "values": [{"measurement": "IC50", "setting": "NCI-H1581", "result": "< 0.3", "unit": "nM"}]}, {"compound": "C=CC(=O)N1CC[C@@H](n2cc(-c3cc4cc(C)cc(OC)c4s3)c3c(N)ncnc32)C1", "values": [{"measurement": "IC50", "setting": "[2]", "result": 82.7, "unit": "nM"}, {"measurement": "IC50", "setting": "[1]", "result": 0.6, "unit": "nM"}, {"measurement": "IC50", "setting": "NCI-H1581", "result": 21.7, "unit": "nM"}]}, {"compound": "C#CC(=O)N1CCC(n2cc(-c3cc4cc(C)cc(OC)c4s3)c3c(N)ncnc32)C1", "note": "(centres undefined)", "values": [{"measurement": "IC50", "setting": "NCI-H1581", "result": "> 1000", "unit": "nM"}]}, {"compound": "C=CC(=O)N1CC(n2cc(-c3cc4ccc(OC)cc4s3)c3c(N)ncnc32)C1", "values": [{"measurement": "IC50", "setting": "NCI-H1581", "result": 86.1, "unit": "nM"}]}, {"compound": "CCC(=O)N1CCC(n2cc(-c3cc4cc(C)cc(OC)c4s3)c3c(N)ncnc32)C1", "note": "(centres undefined)", "values": [{"measurement": "IC50", "setting": "NCI-H1581", "result": 49.7, "unit": "nM"}]}, {"compound": "C=CC(=O)N1CCC(n2cc(-c3cc4cc(OC)cc(OC)c4s3)c3c(N)ncnc32)C1", "note": "(centres undefined)", "values": [{"measurement": "IC50", "setting": "NCI-H1581", "result": "< 0.3", "unit": "nM"}]}, {"compound": "C=CC(=O)N1CC(n2cc(-c3cc4cc(C)cc(OC)c4s3)c3c(N)ncnc32)C1", "values": [{"measurement": "AUC", "setting": "[3]", "result": 46.4, "unit": "ng·h/mL"}, {"measurement": "IC50", "setting": "NCI-H1581", "result": "< 0.3", "unit": "nM"}, {"measurement": "half-life", "setting": "[4]", "result": 127, "unit": "min"}, {"measurement": "Cmax", "setting": "[5]", "result": 12, "unit": "ng/mL"}, {"measurement": "Tmax", "setting": "[6]", "result": 1.67, "unit": "h"}]}, {"compound": "C=CC(=O)N1CCCC(n2cc(-c3cc4cc(C)cc(OC)c4s3)c3c(N)ncnc32)C1", "note": "(centres undefined)", "values": [{"measurement": "IC50", "setting": "NCI-H1581", "result": 227, "unit": "nM"}]}, {"compound": "CCN1CCN(c2ccc(Nc3cc(N(C)C(=O)Nc4c(Cl)c(OC)cc(OC)c4Cl)ncn3)cc2)CC1", "note": "[INFIGRATINIB]", "values": [{"measurement": "IC50", "setting": "Huh-7", "result": 57.2, "unit": "nM"}, {"measurement": "IC50", "setting": "BaF3 [7]", "result": 3340, "unit": "nM"}, {"measurement": "IC50", "setting": "RT-112", "result": "< 0.5", "unit": "nM"}, {"measurement": "IC50", "setting": "BaF3 [8]", "result": 133, "unit": "nM"}]}, {"compound": "COc1cc(CCc2cc(NC(=O)c3ccc(N4C[C@@H](C)N[C@@H](C)C4)cc3)n[nH]2)cc(OC)c1", "note": "[FEXAGRATINIB]", "values": [{"measurement": "IC50", "setting": "Huh-7", "result": 284, "unit": "nM"}, {"measurement": "IC50", "setting": "OPM-2", "result": 83.6, "unit": "nM"}, {"measurement": "IC50", "setting": "BaF3 [7]", "result": 544, "unit": "nM"}, {"measurement": "IC50", "setting": "RT-112", "result": 36.4, "unit": "nM"}, {"measurement": "IC50", "setting": "BaF3 [8]", "result": 339, "unit": "nM"}]}, {"compound": "C=C(CN(C)C)C(=O)N1CCC(n2cc(-c3cc4cc(C)cc(OC)c4s3)c3c(N)ncnc32)C1", "note": "(centres undefined)", "values": [{"measurement": "IC50", "setting": "NCI-H1581", "result": "< 0.3", "unit": "nM"}]}, {"compound": "C=CC(=O)N1CCC(n2cc(-c3cc4cc(C)cc(OC)c4s3)c3c(N)nc(N)nc32)C1", "note": "(centres undefined)", "values": [{"measurement": "IC50", "setting": "NCI-H1581", "result": 25.7, "unit": "nM"}]}, {"compound": "C=CC(=O)N1CC(n2cc(-c3cc4cccc(OC)c4s3)c3c(N)ncnc32)C1", "values": [{"measurement": "IC50", "setting": "NCI-H1581", "result": "< 0.3", "unit": "nM"}]}]}
